Data: PubChem BioAssay (NCI)
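These data come from cells grown in 96-well plates and exposed to compound for 48 hours at five concentrations. At the TGI there is no net growth.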

How the values were obtained:
Assay in all cases: NCI anticancer screen, dose series, 48 h
786-0 renal = test system: 786-0 renal
A498 renal = test system: A498 renal
A549 NSCLC = test system: A549 NSCLC
ACHN renal = test system: ACHN renal
CAKI-1 renal = test system: CAKI-1 renal
CCRF-CEM leukemia = test system: CCRF-CEM leukemia
COLO 205 colon = test system: COLO 205 colon
DLD-1 colon = test system: DLD-1 colon
DMS 114 small cell lung = test system: DMS 114 small cell lung
DMS 273 small cell lung = test system: DMS 273 small cell lung
EKVX NSCLC = test system: EKVX NSCLC
HCC-2998 colon = test system: HCC-2998 colon
HCT-116 colon = test system: HCT-116 colon
HCT-15 colon = test system: HCT-15 colon
HL-60(TB) leukemia = test system: HL-60(TB) leukemia
HOP-18 NSCLC = test system: HOP-18 NSCLC
HOP-62 NSCLC = test system: HOP-62 NSCLC
HT29 colon = test system: HT29 colon
IGROV1 ovarian = test system: IGROV1 ovarian
K-562 leukemia = test system: K-562 leukemia
KM12 colon = test system: KM12 colon
KM20L2 colon = test system: KM20L2 colon
LOX IMVI melanoma = test system: LOX IMVI melanoma
LXFL 529 NSCLC = test system: LXFL 529 NSCLC
M14 melanoma = test system: M14 melanoma
M19-MEL melanoma = test system: M19-MEL melanoma
MALME-3M melanoma = test system: MALME-3M melanoma
MOLT-4 leukemia = test system: MOLT-4 leukemia
NCI-H226 lung = test system: NCI-H226 lung
NCI-H23 lung = test system: NCI-H23 lung
NCI-H460 lung = test system: NCI-H460 lung
NCI-H522 lung = test system: NCI-H522 lung
OVCAR-3 ovarian = test system: OVCAR-3 ovarian
OVCAR-4 ovarian = test system: OVCAR-4 ovarian
OVCAR-5 ovarian = test system: OVCAR-5 ovarian
OVCAR-8 ovarian = test system: OVCAR-8 ovarian
RPMI-8226 leukemia = test system: RPMI-8226 leukemia
SF-268 CNS = test system: SF-268 CNS
SF-295 CNS = test system: SF-295 CNS
SK-MEL-2 melanoma = test system: SK-MEL-2 melanoma
SK-MEL-28 melanoma = test system: SK-MEL-28 melanoma
SK-MEL-5 melanoma = test system: SK-MEL-5 melanoma
SK-OV-3 ovarian = test system: SK-OV-3 ovarian
SN12C renal = test system: SN12C renal
SNB-19 CNS = test system: SNB-19 CNS
SNB-75 CNS = test system: SNB-75 CNS
SNB-78 CNS = test system: SNB-78 CNS
SW-620 colon = test system: SW-620 colon
TK-10 renal = test system: TK-10 renal
U251 CNS = test system: U251 CNS
UACC-257 melanoma = test system: UACC-257 melanoma
UACC-62 melanoma = test system: UACC-62 melanoma
UO-31 renal = test system: UO-31 renal
HOP-92 NSCLC = test system: HOP-92 NSCLC
SF-539 CNS = test system: SF-539 CNS
XF 498 CNS = test system: XF 498 CNS
RXF 393 renal = test system: RXF 393 renal
RXF-631 renal = test system: RXF-631 renal

NC(=O)CCC(NCc1c2ccccc2[n+]([O-])c2ccccc12)C(=O)O (configuration not stated)
TGI (786-0 renal): > 100 µM | TGI (A498 renal): > 100 µM | TGI (A549 NSCLC): > 100 µM | TGI (ACHN renal): > 100 µM | TGI (CAKI-1 renal): > 100 µM | TGI (CCRF-CEM leukemia): > 100 µM | TGI (COLO 205 colon): > 100 µM | TGI (DLD-1 colon): > 100 µM | TGI (DMS 114 small cell lung): > 100 µM | TGI (DMS 273 small cell lung): > 100 µM | TGI (EKVX NSCLC): > 100 µM | TGI (HCC-2998 colon): > 100 µM | TGI (HCT-116 colon): > 100 µM | TGI (HCT-15 colon): > 100 µM | TGI (HL-60(TB) leukemia): 74.1 µM | TGI (HOP-18 NSCLC): > 100 µM | TGI (HOP-62 NSCLC): > 100 µM | TGI (HT29 colon): > 100 µM | TGI (IGROV1 ovarian): > 100 µM | TGI (K-562 leukemia): > 100 µM | TGI (KM12 colon): > 100 µM | TGI (KM20L2 colon): > 100 µM | TGI (LOX IMVI melanoma): > 100 µM | TGI (LXFL 529 NSCLC): > 100 µM | TGI (M14 melanoma): > 100 µM | TGI (M19-MEL melanoma): > 100 µM | TGI (MALME-3M melanoma): > 100 µM | TGI (MOLT-4 leukemia): > 100 µM | TGI (NCI-H226 lung): > 100 µM | TGI (NCI-H23 lung): > 100 µM | TGI (NCI-H460 lung): > 100 µM | TGI (NCI-H522 lung): > 100 µM | TGI (OVCAR-3 ovarian): > 100 µM | TGI (OVCAR-4 ovarian): > 100 µM | TGI (OVCAR-5 ovarian): > 100 µM | TGI (OVCAR-8 ovarian): > 100 µM | TGI (RPMI-8226 leukemia): > 100 µM | TGI (SF-268 CNS): > 100 µM | TGI (SF-295 CNS): > 100 µM | TGI (SK-MEL-2 melanoma): > 100 µM | TGI (SK-MEL-28 melanoma): > 100 µM | TGI (SK-MEL-5 melanoma): > 100 µM | TGI (SK-OV-3 ovarian): > 100 µM | TGI (SN12C renal): > 100 µM | TGI (SNB-19 CNS): > 100 µM | TGI (SNB-75 CNS): > 100 µM | TGI (SNB-78 CNS): > 100 µM | TGI (SW-620 colon): > 100 µM | TGI (TK-10 renal): > 100 µM | TGI (U251 CNS): > 100 µM | TGI (UACC-257 melanoma): > 100 µM | TGI (UACC-62 melanoma): > 100 µM | TGI (UO-31 renal): > 100 µM

CC1(O)CC2C(CC1SCCO)C2(C)C (configuration not stated)
TGI (786-0 renal): > 100 µM | TGI (A498 renal): > 100 µM | TGI (A549 NSCLC): > 100 µM | TGI (ACHN renal): > 100 µM | TGI (CCRF-CEM leukemia): > 100 µM | TGI (COLO 205 colon): > 100 µM | TGI (DLD-1 colon): > 100 µM | TGI (DMS 114 small cell lung): > 100 µM | TGI (DMS 273 small cell lung): > 100 µM | TGI (EKVX NSCLC): > 100 µM | TGI (HCC-2998 colon): > 100 µM | TGI (HCT-116 colon): > 100 µM | TGI (HCT-15 colon): > 100 µM | TGI (HL-60(TB) leukemia): > 100 µM | TGI (HOP-18 NSCLC): > 100 µM | TGI (HOP-92 NSCLC): > 100 µM | TGI (HT29 colon): > 100 µM | TGI (IGROV1 ovarian): > 100 µM | TGI (K-562 leukemia): > 100 µM | TGI (KM12 colon): > 100 µM | TGI (LXFL 529 NSCLC): > 100 µM | TGI (M14 melanoma): > 100 µM | TGI (M19-MEL melanoma): > 100 µM | TGI (MALME-3M melanoma): > 100 µM | TGI (MOLT-4 leukemia): > 100 µM | TGI (NCI-H23 lung): > 100 µM | TGI (NCI-H460 lung): > 100 µM | TGI (OVCAR-3 ovarian): > 100 µM | TGI (OVCAR-4 ovarian): > 100 µM | TGI (OVCAR-5 ovarian): > 100 µM | TGI (OVCAR-8 ovarian): > 100 µM | TGI (RPMI-8226 leukemia): > 100 µM | TGI (SF-268 CNS): > 100 µM | TGI (SF-295 CNS): > 100 µM | TGI (SF-539 CNS): > 100 µM | TGI (SK-MEL-2 melanoma): > 100 µM | TGI (SK-MEL-28 melanoma): > 100 µM | TGI (SK-MEL-5 melanoma): > 100 µM | TGI (SK-OV-3 ovarian): > 100 µM | TGI (SN12C renal): > 100 µM | TGI (SNB-75 CNS): > 100 µM | TGI (SNB-78 CNS): > 100 µM | TGI (TK-10 renal): > 100 µM | TGI (U251 CNS): > 100 µM | TGI (UACC-257 melanoma): > 100 µM | TGI (UO-31 renal): > 100 µM | TGI (XF 498 CNS): > 100 µM

CC(=O)N1CC2Nc3ccccc3C2CC1CO (configuration not stated)
TGI (786-0 renal): > 100 µM | TGI (A498 renal): > 100 µM | TGI (A549 NSCLC): > 100 µM | TGI (ACHN renal): > 100 µM | TGI (CAKI-1 renal): > 100 µM | TGI (CCRF-CEM leukemia): > 100 µM | TGI (COLO 205 colon): > 100 µM | TGI (DLD-1 colon): > 100 µM | TGI (DMS 114 small cell lung): > 100 µM | TGI (DMS 273 small cell lung): > 100 µM | TGI (EKVX NSCLC): > 100 µM | TGI (HCC-2998 colon): > 100 µM | TGI (HCT-116 colon): > 100 µM | TGI (HCT-15 colon): > 100 µM | TGI (HL-60(TB) leukemia): > 100 µM | TGI (HOP-62 NSCLC): > 100 µM | TGI (HOP-92 NSCLC): > 100 µM | TGI (HT29 colon): > 100 µM | TGI (IGROV1 ovarian): > 100 µM | TGI (K-562 leukemia): > 100 µM | TGI (KM12 colon): > 100 µM | TGI (KM20L2 colon): > 100 µM | TGI (LOX IMVI melanoma): > 100 µM | TGI (LXFL 529 NSCLC): > 100 µM | TGI (M14 melanoma): > 100 µM | TGI (M19-MEL melanoma): > 100 µM | TGI (MALME-3M melanoma): > 100 µM | TGI (MOLT-4 leukemia): > 100 µM | TGI (NCI-H226 lung): > 100 µM | TGI (NCI-H23 lung): > 100 µM | TGI (NCI-H460 lung): > 100 µM | TGI (NCI-H522 lung): > 100 µM | TGI (OVCAR-3 ovarian): > 100 µM | TGI (OVCAR-4 ovarian): > 100 µM | TGI (OVCAR-5 ovarian): > 100 µM | TGI (OVCAR-8 ovarian): > 100 µM | TGI (RPMI-8226 leukemia): > 100 µM | TGI (RXF 393 renal): > 100 µM | TGI (RXF-631 renal): > 100 µM | TGI (SF-268 CNS): > 100 µM | TGI (SF-295 CNS): > 100 µM | TGI (SF-539 CNS): > 100 µM | TGI (SK-MEL-2 melanoma): > 100 µM | TGI (SK-MEL-28 melanoma): > 100 µM | TGI (SK-MEL-5 melanoma): > 100 µM | TGI (SK-OV-3 ovarian): > 100 µM | TGI (SN12C renal): > 100 µM | TGI (SNB-19 CNS): > 100 µM | TGI (SNB-75 CNS): > 100 µM | TGI (SNB-78 CNS): > 100 µM | TGI (SW-620 colon): > 100 µM | TGI (TK-10 renal): > 100 µM | TGI (U251 CNS): > 100 µM | TGI (UACC-257 melanoma): > 100 µM | TGI (UACC-62 melanoma): > 100 µM | TGI (UO-31 renal): > 100 µM | TGI (XF 498 CNS): > 100 µM
